# Tests used:
# macrophage foam cells = test: Formation of foam cells / lipid deposits in macrophages, Red Oil O staining; assay type: cell-based, human; settings: oleacein 50 μmol/L + oxLDL 50 μg/mL
# Protocol: (§1) All experiments were conducted with the use of macrophage cells isolated from human peripheral blood. […] Expression of scavenger receptors was determined using flow cytometer. Visualization of lipid deposits in macrophages (foam cells) was carried out with the use of well-known Red Oil O staining method.
# The images were acquired using fluorescence microscope Nikon TS100F. D—control, the cells without stimulation, E—the cells incubated with oleacein (50 μmol/L), F—the cells stimulated with oxLDL (50 μg/mI)—stimulated control, G—the cells incubated with oleacein (50 μmol/L) and oxLDL (50 μg/mL).
# [1] = tested on: macrophage cells isolated from human peripheral blood; test: Cytotoxicity on macrophage cells; assay type: cell-based; settings: oleacein 20 μmol/L and 50 μmol/L, 72 hours
# Protocol: as §1
smiles,measurement,setting,value
C/C=C(/C=O)[C@@H](CC=O)CC(=O)OCCc1ccc(O)c(O)c1 [oleacein],effect on the formation of foam cells and lipid deposits,macrophage foam cells,inhibitory effect
same,cytotoxicity on macrophage cells,[1],no cytotoxicity
